# The METLIN SMRT retention time set (Domingo-Almenara et al. 2019)
# Assay: gradient 5% acetonitrile 3 min, to 50% in 2 min, to 85% in 15 min, held 3 min, 100 µL/min
# Conditions: column: Zorbax Extend-C18 2.1 x 50 mm; eluents: water / acetonitrile, 0.1% formic acid
# Procedure, shortened: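 Retention times of pure standards were taken from adduct peaks that were selected by computer and manually inspected. Over 3 months, mixtures of ~100 molecules were run by HPLC–quadrupole time-of-flight mass spectrometry in positive and negative ionization mode. The Zorbax Extend-C18 column (2.1 × 50 mm, 1.8 μm) ran at 100 μL/min in water and acetonitrile, each containing 0.1% formic acid, with 40 μL dead volume and 900 μL dwell volume.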
row,Compound,RP-LC retention time [s]
1,Cc1[nH]nc(-c2c(C)sc(C)c2S(=O)(=O)NCCC2=CCCCC2)c1C,1210
2,Cc1c(Cl)cccc1NC(=O)NCC(c1cccnc1)c1cn(C)c2ccccc12 (stereo not given),773
3,CCCC(NC(=O)Cc1cccc(F)c1)C(=O)Nc1nc2ccccc2[nH]1 (stereo not given),691
4,O=C(CC1CCN(C(=O)Nc2cccc(C(F)(F)F)c2)CC1)N1CCCCC1,878
5,CCN(CC)S(=O)(=O)c1ccc2c(c1)N(CC(=O)NC1CC1)C(=O)C1CCCCN21 (stereo not given),681
6,C=CCn1c(C)c(CC(=O)Nc2ccc(F)cc2)c(=O)n2nc(-c3ccc(C)cc3)nc12,945
7,O=S(=O)(NCC1CCN(Cc2cccs2)CC1)c1cc(F)ccc1F,562
8,c1ccc2c(-c3nc(-c4ccc5c(c4)ncn5CCN4CCCCC4)no3)n[nH]c2c1,609
9,COc1ccc(Cl)cc1C(=O)Nc1nc2c(s1)Cc1c(Br)ccc(OC)c1-2,1350
10,CCCCOc1ccc(NC(=O)c2cc(=O)c3cc(Cl)c(C)cc3o2)c2cccnc12,824
11,Cc1nc(N2CCCC2)c2c(C(=O)NCCCc3ccccc3)c(C)oc2n1,754
12,N#CCc1ccc(NC(=O)C2CCCN(S(=O)(=O)Cc3ccc(F)cc3)C2)cc1 (stereo not given),884
13,CC(=O)Nc1ccc(C2(C(=O)NCc3ccc4c(c3)OCO4)CCC2)cc1,730
14,Cc1cc(N2CCCC2)n2nc(CN3CCN(c4ccccc4Cl)CC3)nc2n1,662
15,CCNc1nc(NC(C)C)nc(-c2ccncc2)n1,733
16,CN1c2cc(F)ccc2C(=O)NC12CCN(C(=O)c1cccc(F)c1)CC2,769
17,Cn1c(CN2CCN(C(=O)NC(c3ccccc3)c3ccccc3)CC2)nc2ccccc21,620
18,Cc1csc(-c2csc(S(=O)(=O)NCc3cccs3)c2)n1,907
19,CC(C)c1ccc(NC(=O)C2CCCN2S(=O)(=O)c2cc3c(cc2Cl)NC(=O)CO3)cc1 (stereo not given),948
20,Cc1cc(-c2nn3c(-c4cccc(F)c4)nnc3s2)c2ccccc2n1,887
21,O=C(NCCCS(=O)(=O)N1CCN(c2ncccn2)CC1)C1CC1,608
22,O=c1c2cc(Cl)ccc2oc2cc(O)cc(O)c12,1000
23,CCCCc1cc(=O)oc2cc(C)cc(OCC(=O)N3CCC4(O)CCCCC4C3)c12 (stereo not given),933

row,Compound,RP-LC retention time [s]
1,COc1cc(OC)cc(C(=O)NC(C)C(=O)Nc2nc3ccccc3[nH]2)c1 (stereo not given),656
2,O=c1n(Cc2ccc(F)cc2)nc2ccc(S(=O)(=O)N3CCc4ccccc4C3)cn12,983
3,O=C(NCCc1cccs1)c1c(O)c2cccnc2n(-c2cccc(F)c2)c1=O,1180
4,CCOc1ccc2nc(NC(=O)Cc3csc4nc(-c5ccc(C)c(C)c5)cn34)sc2c1,980
5,CCOC(=O)N1CCN(c2cc(C(=O)O)c3cc(NC(=O)c4ccc(Cl)cc4)ccc3n2)CC1,667
6,CN(C)CCCNC(=O)C1CCN(c2nc3ccc(-c4cccnc4)nc3s2)CC1,543
7,Cc1nc2ccc(Cl)cn2c1[N+](=O)[O-],820
8,CC(C)CC(=O)Nc1ccc(N2CCCC(C)C2)cc1C(=O)O (stereo not given),671
9,Cn1c(=O)c2cc(C(=O)N3CCN(c4ccc(F)cc4)CC3)sc2n(C)c1=O,796
10,CCC(CC)NC(=O)CCC1CCN(c2cc(NC3CC3)ncn2)CC1,654
11,O=C(Cn1cnc2nc(N3CCC(C(=O)NC4CC4)CC3)sc2c1=O)Nc1ccccc1F,885
12,Cc1ccc2c(c1)OCC(=O)N2Cc1nc(-c2cccc(Br)c2)no1,1180
13,NCCc1ccc(S(=O)(=O)F)cc1,653
14,C=CCn1c(C(=O)N2CCN(c3ccccn3)CC2)cc2cc(S(=O)(=O)N(C)C)ccc21,649
15,CC(=O)NCc1csc(C2CCN(C(=O)COc3ccc(F)cc3)CC2)n1,662
16,COc1ccc(C)cc1NC(=O)Cn1nc(N2CCSCC2)c2ccccc2c1=O,1040
17,COc1ccc2nc(C(=O)NCc3ccccc3Cl)cn2n1,830
18,Cc1ccc(N2CCC(NC(=O)Nc3ccccc3C)C2=O)cc1 (stereo not given),823
19,NC(=O)C1CCN(C2CC(=O)N(c3cccc(F)c3)C2=O)CC1 (stereo not given),582
20,COc1cccc2cc(C(=O)NC3CNC(=O)C3)oc12 (stereo not given),586
21,O=C(NCc1ccco1)C1CCN(c2nc3ccsc3c(=O)n2Cc2ccccc2)CC1,829
22,COCCc1noc([C@@H]2CN(Cc3ccc4[nH]ccc4c3)C[C@H]2CO)n1,592
23,O=C(c1ccco1)N1CCc2cc(-c3ccno3)ccc21,815

row,Compound,RP-LC retention time [s]
1,Cc1csc(-c2cc(S(=O)(=O)N(C)Cc3ccco3)c(C)n2C)n1,1000
2,O=C1C(=O)N(Cc2ccc(C(=O)N3CCCC3)cc2)CCN1Cc1ccc(F)cc1,702
3,COc1ccc(OC)c(NC(=O)C2=Cc3cc(Br)ccc3OC2)c1,1150
4,CS(=O)(=O)Nc1ccc([N+](=O)[O-])cc1Oc1ccccc1,967
5,O=C(Nc1ccc2c(c1)N(S(=O)(=O)c1ccccc1)CCC2)c1ccccc1[N+](=O)[O-],926
6,O=C(NCCc1ccccc1)NCC1CCN(Cc2ccco2)CC1,562
7,CCCn1c(=O)c2c(ncn2C)n(CCC)c1=O,785
8,Cc1nc(C)c(-c2nnc(NC(=O)c3ccc(=O)[nH]n3)o2)s1,578
9,CCCNC(=O)N1CCN(Cc2nc3cc(-c4ccccc4)ccc3o2)CC1,722
10,O=C(c1cccnc1)N1CCCCC1c1nncn1Cc1ccccc1 (stereo not given),620
11,CC1=C(c2cccc(Cl)c2)S(=O)(=O)N=C1N1CCCN(C(=O)c2cccs2)CC1,860
12,COC(=O)c1c(C)[nH]c(C(=O)N2CCC(CC(=O)N3CCN(c4ccc(OC)cc4)CC3)CC2)c1C,702
13,CSc1nc2ccc(NC(=O)c3ccc(N4C(=O)CCC4=O)cc3)cc2s1,730
14,CC(Cc1ccco1)NC(=O)C1CC(=O)N(c2ccc(F)cc2)C1 (stereo not given),714
15,Cc1ccc(C(=O)N2C[C@@H]3C[C@H](NS(C)(=O)=O)[C@H]2C3)cc1F,671
16,O=C(NCc1ccco1)N1CCN(Cc2nc3cccnc3n2-c2ccccc2)CC1,620
17,CCn1cc(-c2nc(C)c(C(=O)Nc3ccc(F)cc3)s2)c2cccnc21,999
18,Cc1cccc(NC(=O)C23CCC=C2N(C2CCCC2)C(=O)CC3)c1 (stereo not given),952
19,O=S(=O)(c1ccccc1)N1CCc2nc(-c3ccc(Cl)cc3)ncc2C1,1170
20,Cc1onc(-c2ccccc2Cl)c1C(=O)Nn1cnc2c(cnn2C(C)(C)C)c1=O,864
21,Cc1ccc2c(c1)N(S(C)(=O)=O)CCC(C(=O)Nc1ccc(Br)cc1)O2 (stereo not given),1020
22,Cc1ccccc1NC(=O)Cn1c(C)nc2c(sc3nc(-c4ccccc4)ccc32)c1=O,1060
23,Oc1ccc(-c2csc(Nc3ccccn3)n2)cc1O,621

row,Compound,RP-LC retention time [s]
1,COc1ccc2oc(-c3csc(NC(=O)c4c(F)cccc4F)n3)cc2c1,1010
2,CC(=O)N(C)Cc1nc2ccccc2n1CCOc1ccccc1Cl,599
3,NCC(=O)c1cccc2ccc[n+]([O-])c12,678
4,O=C(Nc1ccc2c(c1)OCCO2)N1CCCC(c2nn[nH]n2)C1 (stereo not given),634
5,COc1cccc(-c2nnc(Cc3nc(-c4ccc(Cl)cc4)no3)o2)c1,1100
6,CN1CCN(Cc2ccc(C(=O)NCCC3=CCCCC3)cc2)C(=O)C1=O,698
7,COC(=O)c1cc2c(=O)n(Cc3ccco3)ccc2nc1C,747
8,CC(C)NC(=O)C(=O)c1c(-c2ccccc2)[nH]c2ccccc12,776
9,O=C(Cn1c(=O)oc2ccccc21)N1CCC(c2noc(-c3ccncc3)n2)C1 (stereo not given),712
10,CCCCS(=O)(=O)c1cc2c(cc1NC(=O)c1cccc(F)c1)n(C)c(=O)n2C,966
11,CCOc1ccc(NC(=O)c2cn(C)nc2S(=O)(=O)N2CCC(C)CC2)cc1,1060
12,CN(CC1CCOCC1)C(=O)Nc1cccc(Br)c1,784
13,CCCCS(=O)(=O)N1CCCC(c2nnc(C)s2)C1 (stereo not given),689
14,Cc1cccc(C2(O)C(=O)N(Cc3ccc(C#N)cc3)c3ccccc32)c1 (stereo not given),825
15,Cc1cc(S(=O)(=O)N2CCC(n3cnnc3C)CC2)ccc1Cl,739
16,Cc1sc2ccn(CC(C)C)c(=O)c2c1C(=O)NCc1ccc(N(C)C)cc1,652
17,CCc1ccc(S(=O)(=O)N2CCC(n3c(-c4ccoc4)nc4cccnc43)C2)cc1 (stereo not given),871
18,O=C(CCn1nnc2ccccc2c1=O)NCCn1ncccc1=O,584
19,O=C(NCCCN1CCCCC1)c1ccc(-c2ccnc(N3CCCC3)n2)cc1,592
20,COC(=O)c1ccccc1NS(=O)(=O)c1ccc(Br)cc1,1030
21,O=C(Cc1csc(-c2ccccc2)n1)Nc1nc(-c2ccc3c(c2)CCCC3)cs1,764
